These results are taken from patent US20100261682A1, “Method and Means for the Treatment of Cachexia” (Bioneris AB, priority 2007, published 2010).

Test [1] has as its system MAC16 tumour-bearing mice. Briefly: Body weight, food and water intake in MAC16 tumour-bearing mice treated with lipid soluble alpha-trinositol (Example 5). Format: in vivo, NMRI mice. To be noted: for weight loss compared to the control group: 5 days. The source says:
Materials. Lipid soluble alpha trinositol (1-D-tri-O-hexanoyl-myo-inositol 1,2,6-triphosphate) was formed by further esterification of 1-D-Myo-inositol 1,2,6-triphosphate.
(§1) Animals. Pure strain male NMRI mice (average body weight 25 g) were transplanted with fragments of the MAC16 tumour subcutaneously into the flank by means of a trochar, selected from donor animals with established weight loss (Bibby M C et al., Characterization of transplantable adenocarcinoma in the mouse colon producing cachexia in the recipient animals. J Natl Cancer Inst 78 (1987) 539-546). Transplanted animals were given a rat and mouse breeding diet (Special Diet Services, Witham, UK) and water at lib. Weight loss was evident 10 to 12 days after tumour implantation. Just prior to the development of weight loss […] were randomized into three groups of six animals each.
(§2) Administration of alpha-trinositol. A first experiment was started when the animals had lost about 5% of body weight. Aliquots of lipid soluble alpha-trinositol stock solution corresponding to doses of 6 mg/kg body weight and 8 mg/kg body weight for a 25 g animal were administered subcutaneously three times per day at 8.00, 12.00 and 16.00 hrs. The third group (control) was given an intravenous injection of 10 μl of PBS. Body weight (FIG. 26), tumour volume, and food (FIG. 27) and water (FIG. 28) intake were determined daily (for 5 days) after the last injection. Day 0 is the day of transplant and day 1 is the start of the experiment. The experiment was terminated on day 5 due to loss of controls.

For another test, the system named is MAC16 tumour. Kind of test: Tumour volume in MAC16 tumour-bearing mice treated with lipid soluble alpha-trinositol (Example 5). Type of test: in vivo, NMRI mice. To be noted: 6 mg/kg and 8 mg/kg groups versus control.
Text: as §1, §2

For `CCCCCC(=O)O[C@@H]1[C@@H](OC(=O)CCCCC)[C@@H](OP(=O)(O)O)[C@@H](OP(=O)(O)O)[C@H](OP(=O)(O)O)[C@H]1OC(=O)CCCCC` [lipid soluble alpha trinositol, 1-D-tri-O-hexanoyl-myo-inositol 1,2,6-triphosphate], the “weight loss compared to the control group” value in test [1] (6 mg/kg s.c. three times per day) and in test [1] (8 mg/kg s.c. three times per day) was “significantly lower weight loss” in each case. For the same compound, the “average weight loss in 5 days” value in test [1] (highest concentration (8 mg/kg), control about 6 g) is on record as “about 3 g”. In the test on MAC16 tumour, the “increase in tumour volume” value is on record as “slightly higher in the control group”.
